In brackets after ≈: the same amount, converted by molar mass. Activity calls are given as the source filed them. No cut-off for these calls is given here. Starred links: 1 amine or outer side, 2 acyl side, 3 side chain; linkers in the order of their positions; H or OH if unused. Positions of bridges follow the written chain, without caps; N, C: chain ends. Non-standard residues stand in square brackets, D forms with d. Residues, ends and D or L forms follow the SMILES beside them. X1 = O=C([C@H](CCCCNCC=[*:3])N[*:1])[*:2]
Key:
[1] = system: Staphylococcus aureus; experiment: Antibacterial activity against methicillin-resistant Staphylococcus aureus BNCC 186335 assessed as inhibition of bacterial growth incubated for 4 hrs in presence of 25% plasma by broth microdilution method; format: functional
[2] = system: Cell membrane; experiment: Induction of membrane damage in methicillin-resistant Staphylococcus aureus BNCC 186335 assessed as concentration of stained cells incubated for 2 hrs by propidium iodide staining based flow cytometer assay; format: subcellular; settings: DDE = dose-dependent effect
[3] = system: Enterococcus faecium; experiment: Antibacterial activity against multidrug-resistant Enterococcus faecium assessed as inhibition of bacterial growth incubated for 16 hrs by broth microdilution method; format: functional
[4] = system: Pseudomonas aeruginosa; experiment: Antibacterial activity against multidrug-resistant Pseudomonas aeruginosa BNCC 125486 assessed as inhibition of bacterial growth incubated for 16 hrs by broth microdilution method; format: functional
[5] = system: Cell membrane; experiment: Induction of membrane disruption in multidrug-resistant Acinetobacter baumannii assessed as loss of cell integrity at 16 ug/ml measured after 2 hrs by SEM analysis; format: subcellular; settings: dose 16.0 µg/ml
[6] = system: Cell membrane; experiment: Induction of membrane disruption in methicillin-resistant Staphylococcus aureus BNCC 186335 assessed as loss of cell integrity at 16 ug/ml measured after 2 hrs by SEM analysis; format: subcellular; settings: dose 16.0 µg/ml
[7] = system: Escherichia coli; experiment: Antibacterial activity against multidrug-resistant Escherichia coli BNCC 133264 assessed as inhibition of bacterial growth incubated for 16 hrs by broth microdilution method; format: functional
[8] = system: Escherichia coli; experiment: Antibacterial activity against cephalosporin-resistant Escherichia coli BNCC 133264 assessed as inhibition of bacterial growth incubated for 16 hrs by broth microdilution method; format: functional
[9] = system: Pseudomonas aeruginosa; experiment: Antibacterial activity against Pseudomonas aeruginosa BNCC 125486 assessed as inhibition of bacterial growth incubated for 16 hrs by broth microdilution method; format: functional
[10] = system: Listeria monocytogenes; experiment: Antibacterial activity against Listeria monocytogenes assessed as inhibition of bacterial growth incubated for 16 hrs by broth microdilution method; format: functional
[11] = system: Staphylococcus aureus; experiment: Antibacterial activity against Staphylococcus aureus BNCC 186335 assessed as inhibition of bacterial growth incubated for 16 hrs by broth microdilution method; format: functional
[12] = system: Acinetobacter baumannii; experiment: Bactericidal activity against multidrug-resistant Acinetobacter baumannii assessed as log reduction in colony forming unit at 32 ug/ml measured after 20 mins by time kill assay; format: functional, organism-based; settings: dose 32.0 µg/ml
[13] = system: HEK-293T; experiment: Cytotoxicity against human HEK293T cells assessed as cell survival rate at 256 ug/ml incubated for 24 hrs by MTT assay; format: toxicity, cell-based; settings: dose 256 µg/ml
[14] = system: Staphylococcus aureus; experiment: Antibacterial activity against multidrug-resistant Staphylococcus aureus BNCC 186335 assessed as inhibition of bacterial growth incubated for 16 hrs by broth microdilution method; format: functional
[15] = Stability in human plasma assessed as half life measured after 24 hrs by HPLC analysis; format: ADME, cell-free
[16] = system: Acinetobacter baumannii; experiment: Antibacterial activity against multidrug-resistant Acinetobacter baumannii assessed as inhibition of bacterial growth incubated for 16 hrs by broth microdilution method; format: functional
[17] = system: Cell membrane; experiment: Induction of membrane damage in multidrug-resistant Acinetobacter baumannii assessed as concentration of stained cells incubated for 2 hrs by propidium iodide staining based flow cytometer assay; format: subcellular; settings: dose 16.0 µg/ml
[18] = system: Escherichia coli; experiment: Antibacterial activity against Escherichia coli BNCC 133264 assessed as inhibition of bacterial growth incubated for 16 hrs by broth microdilution method; format: functional
[19] = system: Erythrocyte; experiment: Hemolytic activity against human RBC assessed as concentration required to cause 10% hemolysis; format: toxicity, cell-based
[20] = system: Staphylococcus aureus; experiment: Bactericidal activity against methicillin-resistant Staphylococcus aureus BNCC 186335 assessed as log reduction in colony forming unit at 32 ug/ml measured after 30 mins by time kill assay; format: functional, organism-based; settings: dose 32.0 µg/ml
[21] = system: Staphylococcus aureus; experiment: Drug resistance development in Staphylococcus aureus assessed as change in MIC at sub-MIC concentration measured after 60 passages; format: functional, organism-based
[22] = system: Cell membrane; experiment: Induction of membrane damage in methicillin-resistant Staphylococcus aureus BNCC 186335 assessed as disruption of membrane integrity at 16 ug/ml incubated for 2 hrs by propidium iodide staining based assay; settings: dose 16.0 µg/ml
[23] = system: HEK-293T; experiment: Cytotoxicity against human HEK293T cells assessed as cell survival rate at 128 ug/ml incubated for 24 hrs by MTT assay relative to control; format: toxicity, cell-based; settings: dose 128 µg/ml
[24] = system: Klebsiella pneumoniae; experiment: Antibacterial activity against multidrug-resistant Klebsiella pneumoniae assessed as inhibition of bacterial growth incubated for 16 hrs by broth microdilution method; format: functional
[25] = system: Staphylococcus aureus; experiment: Antibacterial activity against methicillin-resistant Staphylococcus aureus assessed as inhibition of bacterial growth incubated for 16 hrs by broth microdilution method; format: functional
[26] = system: HEK-293T; experiment: Cytotoxicity against human HEK293T cells assessed as cell survival rate at 64 Ug/ml incubated for 24 hrs by MTT assay relative to control; format: toxicity, cell-based; settings: dose 64 µg/ml
[27] = Toxicity in C57BL/6 mouse assessed as effect on body weight at 5 to 20 mg/kg, ip administered once daily for 5 days and measured every 24 hrs; format: organism-based; settings: in vivo, 120 h, dose 5-20 mg/kg, time 5 day
[28] = Toxicity in C57BL/6 mouse assessed as abnormalities and pathological changes in liver at 20 mg/kg, ip administered once daily for 5 days by H and E staining based assay; format: organism-based; settings: in vivo, 120 h, time 5 day
[29] = Toxicity in C57BL/6 mouse assessed as effect on aspartate transaminase level at 5 to 20 mg/kg, ip administered once daily for 5 days and measured after 6 days; format: organism-based; settings: in vivo, 120 h, dose 5-20 mg/kg, time 5 day
[30] = system: Staphylococcus aureus; experiment: Antibacterial activity against methicillin-resistant Staphylococcus aureus BNCC 186335 infected in mouse C57BL/6 assessed as reduction in intracellular bacterial burden in spleen at 2 mg/kg ,ip incubated for 24 hrs; format: functional, organism-based
[31] = system: Acinetobacter baumannii; experiment: Bactericidal activity against multidrug-resistant Acinetobacter baumannii assessed as log reduction in colony forming unit at 32 ug/ml measured after 10 mins by time kill assay; format: functional, organism-based; settings: dose 32.0 µg/ml
[32] = Toxicity in C57BL/6 mouse assessed as effect on alanine aminotransferase level at 5 to 20 mg/kg, ip administered once daily for 5 days and measured after 6 days; format: organism-based; settings: in vivo, 120 h, dose 5-20 mg/kg, time 5 day
[33] = Toxicity in C57BL/6 mouse assessed as effect on blood urea nitrogen level at 5 to 20 mg/kg, ip administered once daily for 5 days and measured after 6 days; format: organism-based; settings: in vivo, 120 h, dose 5-20 mg/kg, time 5 day
[34] = system: Staphylococcus aureus; experiment: Antibacterial activity against methicillin-resistant Staphylococcus aureus BNCC 186335 infected in mouse C57BL/6 assessed as reduction in intracellular bacterial burden in liver at 2 mg/kg ,ip incubated for 24 hrs; format: functional, organism-based
[35] = Toxicity in C57BL/6 mouse assessed as abnormalities and pathological changes in kidney at 20 mg/kg, ip administered once daily for 5 days by H and E staining based assay; format: organism-based; settings: in vivo, 120 h, time 5 day

SMILES | Activity [2] | MIC [3] [µg/mL] | MIC [4] [µg/mL] | Activity [5] | Activity [6] | MIC [7] [µg/mL] | MIC [8] [µg/mL] | MIC [9] [µg/mL] | MIC [10] [µg/mL] | MIC [11] [µg/mL] | Activity [13] | MIC [14] [µg/mL] | half-life [15] [min] | MIC [16] [µg/mL] | Activity [17] [%] | MIC [18] [µg/mL] | MHC [19] [µg/mL] | Activity [21] | Activity [22] | MIC [24] [µg/mL] | other results
CC(C)[C@H](N)C(=O)N[C@@H](CCCCN)C(=O)N[C@@H](CCCNC(=N)N)C(=O)N[C@@H](Cc1ccccc1)C(=O)N[C@@H](CCCCN)C(=O)N[C@H]1CCCCNCc2ccccc2CNCCCC[C@@H](C(=O)N[C@@H](Cc2ccccc2)C(=O)N[C@@H](CCCCN)C(=O)N[C@@H](CCCCN)C(=O)N[C@@H](Cc2ccccc2)C(=O)N[C@H](C(N)=O)C(C)C)NC(=O)[C@H](CCCNC(=N)N)NC(=O)[C@H](Cc2ccccc2)NC(=O)[C@H](Cc2ccccc2)NC1=O | Dde | 2 (≈ 0.937 µM) | 8 (≈ 3.75 µM) | Active | Active | 4 (≈ 1.87 µM) | 8 (≈ 3.75 µM) | 8 (≈ 3.75 µM) | 4 (≈ 1.87 µM) | 2 (≈ 0.937 µM) | Toxic | 4 (≈ 1.87 µM) | 960 | 2 (≈ 0.937 µM) | 27 | 4 (≈ 1.87 µM) | 32 | Active | Active | 16 (≈ 7.5 µM) | MIC [1]: 8 µg/mL; Activity [12]: Active; Activity [20]: Active; Activity [23]: Toxic; MIC [25]: 2 µg/mL (≈ 0.937 µM)
CC(C)[C@H](N)C(=O)N[C@@H](CCCCN)C(=O)N[C@@H](CCCNC(=N)N)C(=O)N[C@@H](Cc1ccccc1)C(=O)N[C@@H](CCCCN)C(=O)N[C@H]1CCCCNC/C=C/CNCCCC[C@@H](C(=O)N[C@@H](Cc2ccccc2)C(=O)N[C@@H](CCCCN)C(=O)N[C@@H](CCCCN)C(=O)N[C@@H](Cc2ccccc2)C(=O)N[C@H](C(N)=O)C(C)C)NC(=O)[C@H](CCCNC(=N)N)NC(=O)[C@H](Cc2ccccc2)NC(=O)[C@H](Cc2ccccc2)NC1=O (H-VKRFK[X1]FFR[X1]FKKFV-NH2; staple (E) 6-10) | Dde | 4 (≈ 1.92 µM) | 8 (≈ 3.84 µM) | Active | Active | 4 (≈ 1.92 µM) | 8 (≈ 3.84 µM) | 16 (≈ 7.68 µM) | 4 (≈ 1.92 µM) | 2 (≈ 0.959 µM) | Toxic | 8 (≈ 3.84 µM) | 780 | 4 (≈ 1.92 µM) | 80 | 2 (≈ 0.959 µM) | > 128 | Active | Active | 32 (≈ 15.4 µM) | Activity [1]: Active; Activity [26]: Toxic; Activity [27]: Non-Toxic; Activity [28]: Non-Toxic; Activity [29]: Non-Toxic; Activity [30]: Active; Activity [31]: Active; Activity [32]: Non-Toxic; Activity [33]: Non-Toxic; Activity [34]: Active; Activity [35]: Non-Toxic; MIC [25]: 2 µg/mL (≈ 0.959 µM)
